Laboratory results from patent US10221271B2, “Polymer/copper combination for targeted cancer therapy” (University of South Carolina, priority 2014, dated 2019).

Legend:
SKOV-3 cells [1] = experiment: Cellular uptake of Cy5 labeled nanoparticles, flow cytometry and confocal microscopy; format: cell-based; conditions: DTNB binds exofacial free thiol groups
Protocol: FIG. 9 presents […] spectra of SKOV-3 (left) and NIH 3T3 (right) cells. Cellular uptake assays were carried out 1 h after the addition of nanoparticles. Scale bars were 20 μm.
FIG. 10 presents the flow cytometry spectra of SKOV-3 (left) and NIH 3T3 (right) cells treated with Cy5 labeled PDA-PEG nanoparticles. Cellular uptake assays were carried out 1 h after the addition of nanoparticles.
PDA-PEG was modified by Cy5 for cellular uptake study. Briefly, cysteamine (0.11 mg, 5% PDA function group) in 500 μL DMSO was added dropwise into 20 mg PDA-PEG in 500 μL DSMO and the reaction mixture was kept at room temperature overnight. After overnight reaction, Cy5-NHS ester (0.39 mg in 390 μL DMSO) was added and the mixture was kept for reacting overnight, following a thoroughly dialysis towards DMSO to remove free Cy5. The concentration of Cy5 in the final product was measured by a microplate reader (SpectraMax® M5. Molecular Devices Inc) at λex640 and λem680.
To probe the mechanism for PDA-PEG/Cu^2+ selectively killing cancer cells, the cellular uptake of PDA-PEG and PDA-PEG/Cu^2+ nanoparticle was investigated with flow cytometry and confocal microscopy. […] Therefore, the uptake of PDA-PEG/Cu^2+ wasn't the reason for its cancer-cell-selectivity. 5,5′-Dithio-bis-(2-nitrobenzoic acid) (DTNB) is a compound binds the free thiol groups on the surface of cell membrane. […]

SKOV-3 cells [2] = experiment: Cell cycle analysis by flow cytometry; format: cell-based; conditions: 41.58 μM, 12 h, FIG. 14
Protocol: FIG. 14 presents cell cycle analysis of SKOV-3 cells after treated with 41.58 μM of PDA-PEG/Cu2+ for 12 h. Flow cytometry spectra (A) and quantitive analysis (B) of cell cycle. Data represent the means±SD, n=3. *p<0.01.
CDKN1C is an inhibitor for G1 cyclin/Cdk complexes and causes cell arrest in G1 phase. To investigate the effect of CDKN1C up-regulation after PDA-PEG/Cu^2+treatment, cell cycle analysis was employed.

[3] = test system: intracellular GSH in NCI/ADR-Res, UMSCC 22A, and SKOV-3 cells; experiment: GSH-Glo Glutathione Assay, intracellular GSH level; format: cell-based; conditions: BSO 1 mM, 8 h
Protocol: (§1) It has been reported that GSH levels in tumor tissues, such as ovarian, head and neck, breast, and lung cancer are higher than that in normal tissues. To probe whether the high GSH level is also prevail in cancer cells in vitro, GSH-Glo™ Glutathione Assay was employed. Briefly, tumor and normal cells were seeded in 96-well white plate (5,000 cells/well) overnight prior to the study. BSO (1 mM) or GSH-MME (5 mM) in culture medium was added. For control group, only fresh culture medium was added. Cells were incubated for 8 h, and the intracellular GSH concentration was measured by GSH-Glo™ Glutathione Assay according to the manufacturer's instruction.
(§2) Accordingly, glutathione-monomethylester (GSH-MME, 5 mM) and buthionine sulfoxamine (BSO, 1 mM) were employed to boost or deplete the intracellular GSH level in normal cells (NIH 3T3, BNL CL.2, KC, and MCF 10A) or cancer cells (NCI/ADR-Res, HCT 116, UMSCC 22A, SKOV-3, and MDA-MB-231), respectively.

[4] = test system: intracellular GSH in normal cells (NIH 3T3, BNL CL.2, KC, and MCF 10A); conditions: GSH-MME 5 mM, 8 h
Protocol: as §1, §2

Compound: O=C(O)c1cc(SSc2ccc([N+](=O)[O-])c(C(=O)O)c2)ccc1[N+](=O)[O-] [DTNB, 5,5′-Dithio-bis-(2-nitrobenzoic acid)]
- effect on cellular uptake of PDA-PEG (SKOV-3 cells [1]): significantly inhibited

Compound: [Cl][Cu][Cl] [Cu^2+ ion, CuCl2]
- effect on cell cycle distribution (SKOV-3 cells [2]): did not show any effect

Compound: CCCCS(=N)(=O)CCC(N)C(=O)O (stereo not shown) [BSO, Buthionine sulfoximine]
- intracellular GSH level [3]: declined GSH level

Compound: COC(=O)CNC(=O)[C@H](CS)NC(=O)CC[C@H](N)C(=O)O [GSH-MME, Glutathione monomethylester]
- intracellular GSH level [4]: higher intracellular GSH level
